The record followed here is US10174024B2, “5H-pyrido[3,2-B]indole compounds as anticancer agents” (BRISTOL-MYERS SQUIBB COMPANY, priority 2015, dated 2019).

The structures appear in SMILES notation.

In the assay the target is BRD4 (Homo sapiens, UniProt O60885). The assay can be described thus: Time Resolved Fluorescence Resonance Energy Transfer (TR-FRET) binding assay, FRET BRD4. The note with it: one of the FRET assays described (BRD4 bromodomain construct not specified); read-out: FRET BRD4 IC50. (TR-FRET usually uses a lanthanide donor and a delayed reading to cut background.)

By IC50 is commonly meant the point on the concentration scale where inhibition reaches its midpoint. On to `[2H]C([2H])([2H])c1nnn(C)c1-c1cnc2c3c(N4CCCS4(=O)=O)ccc(S(C)(=O)=O)c3n([C@H](c3ccccc3F)C3CCOCC3)c2c1` [Example 34, 2-{5-[(S)-(2-Fluorophenyl)(oxan-4-yl)methyl]-6-methanesulfonyl-3-[4-(^2H3)methyl-1-methyl-1H-1,2,3-triazol-5-yl]-5H-pyrido[3,2-b]indol-9-yl}-1λ^6,2-thiazolidine-1,1-dione], for which the IC50 is less than 1 nM.

Consider `[2H]C([2H])([2H])c1nnn(C)c1-c1cnc2c3c(N4CCCS4(=O)=O)ccc(S(C)(=O)=O)c3n(C(c3ncccc3F)C3CCOCC3)c2c1` (centres unmarked) [Example 35, 2-{5-[(3-Fluoropyridin-2-yl)(oxan-4-yl)methyl]-6-methanesulfonyl-3-[4-(^2H3)methyl-1-methyl-1H-1,2,3-triazol-5-yl]-5H-pyrido[3,2-b]indol-9-yl}-1λ^6,2-thiazolidine-1,1-dione], for which the IC50 is less than 1 nM.

As to `[2H]C([2H])([2H])c1nnn(C)c1-c1cnc2c3c(N4CCCS4(=O)=O)ccc(S(C)(=O)=O)c3n(C(c3ncccc3F)C3CCOCC3)c2c1` (centres unmarked) [Example 36, 2-{5-[(3-Fluoropyridin-2-yl)(oxan-4-yl)methyl]-6-methanesulfonyl-3-[4-(^2H3)methyl-1-methyl-1H-1,2,3-triazol-5-yl]-5H-pyrido[3,2-b]indol-9-yl}-1λ^6,2-thiazolidine-1,1-dione], the IC50 is less than 1500 nM.

Consider `[2H]C([2H])([2H])c1nnn(C)c1-c1cnc2c3c(N4CCCS4(=O)=O)ccc(S(C)(=O)=O)c3n([C@]([2H])(c3ccccc3F)C3CCOCC3)c2c1` [Example 37, 2-{5-[(S)-(2-Fluorophenyl)(oxan-4-yl)(^2H)methyl]-6-methanesulfonyl-3-[4-(^2H3)methyl-1-methyl-1H-1,2,3-triazol-5-yl]-5H-pyrido[3,2-b]indol-9-yl}-1λ^6,2-thiazolidine-1,1-dione], for which the half-maximal inhibitory concentration (IC50) is less than 5 nM.

Regarding `[2H]C([2H])([2H])c1nnn(C)c1-c1cnc2c3c(N4CCCS4(=O)=O)ccc(S(C)(=O)=O)c3n([C@]([2H])(c3ccccc3)C3CCOCC3)c2c1` [Example 38, 2-{6-Methanesulfonyl-3-[4-(^2H3)methyl-1-methyl-1H-1,2,3-triazol-5-yl]-5-[(S)-oxan-4-yl(phenyl)(^2H)methyl]-5H-pyrido[3,2-b]indol-9-yl}-1λ^6,2-thiazolidine-1,1-dione], the concentration for half-maximal inhibition (IC50) is less than 5 nM.

With `[2H]C([2H])([2H])c1nnn(C)c1-c1cnc2c3cc(N4CCS(=O)(=O)CC4)ccc3n([C@H](c3ccc(F)cc3)C3CCOCC3)c2c1` [Example 39, 4-{5-[(S)-(4-Fluorophenyl)(oxan-4-yl)methyl]-3-[4-(^2H3)methyl-1-methyl-1H-1,2,3-triazol-5-yl]-5H-pyrido[3,2-b]indol-8-yl}-1λ^6-thiomorpholine-1,1-dione], the IC50 is less than 5 nM.

Turning to `[2H]C([2H])([2H])c1nnn(C)c1-c1cnc2c3cc(N4CCN(S(C)(=O)=O)CC4)ccc3n([C@H](c3ccc(F)cc3)C3CCOCC3)c2c1` [Example 40, 1-{5-[(S)-(4-Fluorophenyl)(oxan-4-yl)methyl]-3-[4-(^2H3)methyl-1-methyl-1H-1,2,3-triazol-5-yl]-5H-pyrido[3,2-b]indol-8-yl}-4-methanesulfonylpiperazine], the IC50 is less than 1 nM.

As to `[2H]C([2H])([2H])c1nnn(C)c1-c1cnc2c3cc(N4CCS(=O)(=O)CC4)ccc3n([C@H](c3ccccc3F)C3CCOCC3)c2c1` [Example 41, 4-{5-[(S)-(2-Fluorophenyl)(oxan-4-yl)methyl]-3-[4-(^2H3)methyl-1-methyl-1H-1,2,3-triazol-5-yl]-5H-pyrido[3,2-b]indol-8-yl}-1λ^6-thiomorpholine-1,1-dione], the IC50 was less than 1500 nM.

Regarding `[2H]C([2H])([2H])c1nnn(C)c1-c1cnc2c3cc(N4CCN(S(C)(=O)=O)CC4)ccc3n([C@H](c3ccccc3F)C3CCOCC3)c2c1` [Example 42, 1-{5-[(S)-(2-Fluorophenyl)(oxan-4-yl)methyl]-3-[4-(^2Ha)methyl-1-methyl-1H-1,2,3-triazol-5-yl]-5H-pyrido[3,2-b]indol-8-yl}-4-methanesulfonylpiperazine], the IC50 is less than 5 nM.

On to `[2H]C([2H])([2H])c1nnn(C)c1-c1cnc2c3cc(N4CCc5ccccc5C4)ccc3n([C@H](c3ccc(F)cc3)C3CCOCC3)c2c1` [Example 43, 2-{5-[(S)-(4-Fluorophenyl)(oxan-4-yl)methyl]-3-[4-(^2H3)methyl-1-methyl-1H-1,2,3-triazol-5-yl]-5H-pyrido[3,2-b]indol-8-yl}-1,2,3,4-tetrahydroisoquinoline], for which the IC50 was less than 5 nM.

In the case of `Cc1nnn(C)c1-c1cnc2c3ccc(N4CCS(=O)(=O)CC4)cc3n([C@H](c3ccccc3)C3CCOCC3)c2c1` [Example 44, 4-[3-(Dimethyl-1H-1,2,3-triazol-5-yl)-5-[(S)-oxan-4-yl(phenyl)methyl]-5H-pyrido[3,2-b]-indol-7-yl]-1λ^6-thiomorpholine-1,1-dione], the IC50 was less than 1 nM.

As for `[2H]C([2H])([2H])c1nnn(C)c1-c1cnc2c3ccc(N4CCS(=O)(=O)CC4)cc3n([C@H](c3ccccc3)C3CCOCC3)c2c1` [Example 45, 4-{3-[4-(^2H3)Methyl-1-methyl-1H-1,2,3-triazol-5-yl]-5-[(S)-oxan-4-yl(phenyl)methyl]-5H-pyrido[3,2-b]indol-7-yl}-1λ^6-thiomorpholine-1,1-dione], the IC50 was less than 5 nM.

`[2H]C([2H])([2H])c1nnn(C)c1-c1cnc2c3ccc(N4CCN(S(C)(=O)=O)CC4)cc3n([C@H](c3ccccc3)C3CCOCC3)c2c1` [Example 46, 1-Methanesulfonyl-4-{3-[4-(^2H3)methyl-1-methyl-1H-1,2,3-triazol-5-yl]-5-[(S)-oxan-4-yl(phenyl)methyl]-5H-pyrido[3,2-b]indol-7-yl}piperazine]: the IC50 is less than 1 nM.

As for `Cc1nnn(C)c1-c1cnc2c3ccc(N4CCN(C5CCN(C)CC5)CC4)cc3n([C@H](c3ccccc3)C3CCOCC3)c2c1` [Example 48, 1-[3-(Dimethyl-1H-1,2,3-triazol-5-yl)-5-[(S)-oxan-4-yl(phenyl)methyl]-5H-pyrido[3,2-b]indol-7-yl]-4-(1-methylpiperidin-4-yl)piperazine], the IC50 was less than 1 nM.

For the molecule `Cc1nnn(C)c1-c1cnc2c3ccc(N4CCN(C(=O)N(C)C)CC4)cc3n([C@H](c3ccccc3)C3CCOCC3)c2c1` [Example 49, 4-[3-(Dimethyl-1H-1,2,3-triazol-5-yl)-5-[(S)-oxan-4-yl(phenyl)methyl]-5H-pyrido[3,2-b]indol-7-yl]-N,N-dimethylpiperazine-1-carboxamide], the IC50 is less than 5 nM.

As to `Cc1nnn(C)c1-c1cnc2c3ccc(N4CCN(S(=O)(=O)N(C)C)CC4)cc3n([C@H](c3ccccc3)C3CCOCC3)c2c1` [Example 50, 4-[3-(Dimethyl-1H-1,2,3-triazol-5-yl)-5-[(S)-oxan-4-yl(phenyl)methyl]-5H-pyrido[3,2-b]indol-7-yl]-N,N-dimethylpiperazine-1-sulfonamide], the IC50 was less than 5 nM.

On to `[2H]C([2H])([2H])c1nnn(C)c1-c1cnc2c3cc(N4CCS(=O)(=O)[C@H](C)C4)ccc3n([C@H](c3ccccc3F)C3CCOCC3)c2c1` [Example 51, (2R)-4-{5-[(S)-(2-Fluorophenyl)(oxan-4-yl)methyl]-3-[4-(^2Ha)methyl-1-methyl-1H-1,2,3-triazol-5-yl]-5H-pyrido[3,2-b]indol-8-yl}-2-methyl-1λ^6,4-thiomorpholine-1,1-dione], for which the IC50 was less than 1 nM.
